Measured values: article PMC3879575, “Evidence That GH115 α-Glucuronidase Activity, Which Is Required to Degrade Plant Biomass, Is Dependent on Conformational Flexibility” (The Journal of Biological Chemistry, 2013)

Legend:
[1] = biological target: T1, BoAgu115A (BACOVA_03449) (Bacteroides ovatus, UniProt A0ABU3IS40); assay: X-ray crystal structure, […] Å; type: binding; conditions: crystals soaked with 300 mM GlcA; pH 5.5; active site; open-chain form
T1 construct: mature form (signal peptide removed), N-terminal His6 tag (pET28a), E. coli BL21 DE3, 824 residues, 85 kDa, homodimer; modelled residues 33-856

[2] = biological target: T1, BoAgu115A (BACOVA_03449); assay: coupled alpha-D-glucuronidase assay kit, NADH at […] nm; type: biochemical; conditions: PC buffer (50 mM sodium phosphate, 12 mM citrate) pH 6.5, 1 mg/ml BSA, 37 °C
[3] = biological target: BoAgu115A (BACOVA_03449), GH115 α-glucuronidase of Bacteroides ovatus (Bacteroides ovatus); assay: AUC; sedimentation velocity, interference optics, 48,000 rpm, 20 °C, sample volume 400 μl

Row | Molecule | Km [2] | also measured
1 | O=C[C@H](O)[C@@H](O)[C@H](O)[C@H](O)C(=O)O [GlcA] | – | X-ray crystal structure, 2.14 Å [1]: BoAgu115A was co-crystallized with GlcA, which revealed electron density for the uronic acid
2 | CO[C@H]1[C@H](O)[C@@H](O)[C@@H](O[C@H]2[C@H](O[C@@H]3CO[C@@H](O[C@@H]4COC(O)[C@H](O)[C@H]4O)[C@H](O)[C@H]3O)OC[C@@H](O[C@@H]3OC[C@@H](O)[C@H](O)[C@H]3O)[C@@H]2O)O[C@@H]1C(=O)O (stereo partly shown) [XUXX] | 4.5 mM | –
3 | BoAgu115A (BACOVA_03449), GH115 α-glucuronidase of Bacteroides ovatus (enzyme) | – | stoichiometry N [3]: 2
4 | UXX | 19.5 mM | –
